These results are taken from patent US20220402916A1, “SMALL MOLECULE INHIBITORS OF KRAS G12C MUTANT” (Merck Sharp & Dohme Corp., priority 2019, published 2022).

Read-outs that look alike come from different tables or passages of the source.

In one assay the test system is NCI-H358 cells. Nature of the assay: Cellular phospho-ERK assay. The assay is classed as cell-based. The note with it: NCI-H358 cells, 2 hour incubation, ratio of p-Erk vs total Erk, read-out: IC50. As to the method: NCI-H358 cells (ATCC® CRL-5807™) were cultured in T150 flask in growth medium (RPMI medium 1640-GlutaMAX™-1 (ThermoFisher Scientific 61870) containing 10% fetal bovine serum (ThermoFisher Scientific 10091148)). The cells were harvested in growth medium after TrypLE (ThermoFisher scientific 12604021) digestion and were seeded in 384-well collagen coated cell culture plate (Corning 356702) at a density of 15,000 cells/well, and incubated at 37° C., 5% CO2 overnight. The compound dose-response titrations were prepared and appropriate amounts of compounds were dispensed in 384-well intermediate plate using Echo 550 liquid handler. RPMI medium 1640-GlutaMAX™-I were added to the intermediate plate and transferred to 384-well cell culture plate, which was incubated at 37° C., 5% CO2 for 2 hours. After removal of medium from the plate, cells were lysed in lysis buffer from Alpha SureFire® Ultra™ Multiplex p-Erk and total Erk assay kit (PerkinElmer MPSU-PTERK) containing Halt™ Protease and Phosphotase inhibitor cocktail (ThermoFisher Scientific 78446) at room temperature with constant shaking at 300 rpm for 30 minutes. The cell lysates were then transferred to OptiPlate-384 plate (PerkinElmer 6005620) and the phosphorylation of Erk and total Erk levels were detected by Alpha SureFire Ultra Multiplex p-Erk kit (PerkinElmer MPSU-PTERK) following the manufacturer's protocol. Assay plates were read on an EnVision Multimode Plate Reader (PerkinElmer) and the ratio of p-Erk vs total Erk in each well was used as the final readout. Dose response curves were analyzed using a 4-parameter logistic model to calculate IC50 values using spotfire software.

The target in assay [1] is T1, Biotinylated KRAS G12C protein (Homo sapiens, UniProt P01116, C118S/C51S/C80L/G12C).
T1 construct: 183 amino acids; biotin on K10
The experiment in a line: SOS-catalyzed nucleotide exchange assay. Type of assay: biochemical. The note with it: apparent potency; preincubation time of 60 minutes prior to addition of SOS.

T1 sequence (P01116 with tags, fused parts or gaps isoform P01116-2 G12C/C51S/C80L/C118S): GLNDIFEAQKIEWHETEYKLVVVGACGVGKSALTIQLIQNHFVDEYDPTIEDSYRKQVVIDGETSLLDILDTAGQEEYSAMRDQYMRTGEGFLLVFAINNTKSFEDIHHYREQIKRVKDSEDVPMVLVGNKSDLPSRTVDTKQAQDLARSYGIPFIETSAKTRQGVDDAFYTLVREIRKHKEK

Regarding `C=CC(=O)N1CCN(c2cc(C(=O)NC3(C)CCCNC3)nc3c2CCN(c2cccc4cccc(C)c24)C3)C[C@@H]1CC#N` (mixture of isomers) [Compound 102, 4-((S)-4-acryloyl-3-(cyanomethyl)piperazin-1-yl)-7-(8-methylnaphthalen-1-yl)-N-((R)-3-methylpiperidin-3-yl)-5,6,7,8-tetrahydro-1,7-naphthyridine-2-carboxamide, as a mixture with 4-((S)-4-acryloyl-3-(cyanomethyl)piperazin-1-yl)-7-(8-methylnaphthalen-1-yl)-N-((S)-3-methylpiperidin-3-yl)-5,6,7,8-tetrahydro-1,7-naphthyridine-2-carboxamide], the IC50 (usually the midpoint of a concentration-inhibition curve) with NCI-H358 cells (Homo sapiens, NCI-H358, 2 h) came out at 0.809 µM; in assay [1], 5.4 nM.
In the case of `C=CC(=O)N1CCN(c2cc(C(=O)NC(CC)CN3CCCC3)nc3c2CCN(c2cccc4cccc(C)c24)C3)CC1` (racemic) [Compound 23, rac-4-(4-acryloylpiperazin-1-yl)-7-(8-methylnaphthalen-1-yl)-N-(1-(pyrrolidin-1-yl)butan-2-yl)-5,6,7,8-tetrahydro-1,7-naphthyridine-2-carboxamide], the IC50 came to 9.77 µM in the assay with NCI-H358 cells (Homo sapiens, NCI-H358, 2 h) and 90 nM in assay [1].
With `C=CC(=O)N1CCN(c2cc(C(=O)N[C@H](C)CN3CC(F)(F)C3)nc3c2CCN(c2cccc4cccc(C)c24)C3)C[C@@H]1CC#N` [Compound 68, 4-((S)-4-acryloyl-3-(cyanomethyl)piperazin-1-yl)-N—((R)-1-(3,3-difluoroazetidin-1-yl)propan-2-yl)-7-(8-methylnaphthalen-1-yl)-5,6,7,8-tetrahydro-1,7-naphthyridine-2-carboxamide], the IC50 stood at 2.89 µM in the assay with NCI-H358 cells (Homo sapiens, NCI-H358, 2 h) and 29 nM in assay [1].
As to `C=CC(=O)N1CCN(c2cc(C(=O)Nc3ccccc3CN)nc3c2CCN(c2cccc4cccc(C)c24)C3)C[C@@H]1CC#N` [Compound 94, (S)-4-(4-acryloyl-3-(cyanomethyl)piperazin-1-yl)-N-(2-(aminomethyl)phenyl)-7-(8-methylnaphthalen-1-yl)-5,6,7,8-tetrahydro-1,7-naphthyridine-2-carboxamide], the IC50 worked out at 6.63 µM in the assay on NCI-H358 cells (Homo sapiens, NCI-H358, 2 h) and 12 nM in assay [1].
With `C=CC(=O)N1CCN(c2cc(C(=O)NC(C)CN3CCC(F)(F)C3)nc3c2CCN(c2cccc4cccc(C)c24)C3)C[C@@H]1CC#N` (single isomer, unassigned) [Compound 71, 4-((S)-4-acryloyl-3-(cyanomethyl)piperazin-1-yl)-N—((R or S)-1-(3,3-difluoropyrrolidin-1-yl)propan-2-yl)-7-(8-methylnaphthalen-1-yl)-5,6,7,8-tetrahydro-1,7-naphthyridine-2-carboxamide], the values for the IC50 (with NCI-H358 cells; in assay [1]) were 5.55 µM and 32 nM, respectively.
Regarding `C=CC(=O)N1CCN(c2cc(C(=O)NC(CN)CN)nc3c2CCN(c2cccc4cccc(C)c24)C3)C[C@@H]1CC#N` [Compound 87, (S)-4-(4-acryloyl-3-(cyanomethyl)piperazin-1-yl)-N-(1,3-diaminopropan-2-yl)-7-(8-methylnaphthalen-1-yl)-5,6,7,8-tetrahydro-1,7-naphthyridine-2-carboxamide], the IC50 with NCI-H358 cells (Homo sapiens, NCI-H358, 2 h) came to 26.7 µM; in assay [1], 15 nM.
Take `C=CC(=O)N1CCN(c2cc(C(=O)NCCN(C)C)nc3c2CCN(c2cccc4ccccc24)C3)C[C@@H]1CC#N` [Compound 60, (S)-4-(4-acryloyl-3-(cyanomethyl)piperazin-1-yl)-N-(2-(dimethylamino)ethyl)-7-(naphthalen-1-yl)-5,6,7,8-tetrahydro-1,7-naphthyridine-2-carboxamide]: the IC50 is 0.375 µM with NCI-H358 cells (Homo sapiens, NCI-H358, 2 h) and 8.8 nM in assay [1].
As to `C=CC(=O)N1CCN(c2cc(C(=O)NCC[C@H]3CCCN3)nc3c2CCN(c2cccc4cccc(C)c24)C3)C[C@@H]1CC#N` [Compound 104, 4-((S)-4-acryloyl-3-(cyanomethyl)piperazin-1-yl)-7-(8-methylnaphthalen-1-yl)-N-(2-((R)-pyrrolidin-2-yl)ethyl)-5,6,7,8-tetrahydro-1,7-naphthyridine-2-carboxamide], the IC50 with NCI-H358 cells (Homo sapiens, NCI-H358, 2 h) came to 4.9 µM; in assay [1], 12 nM.
Taken in the same sequence, the figures for `C=CC(=O)N1CCN(c2cc(C(=O)NC[C@H]3CCCN3)nc3c2CCN(c2cccc4cccc(C)c24)C3)C[C@@H]1CC#N` [Compound 98, 4-((S)-4-acryloyl-3-(cyanomethyl)piperazin-1-yl)-7-(8-methylnaphthalen-1-yl)-N-(((R)-pyrrolidin-2-yl)methyl)-5,6,7,8-tetrahydro-1,7-naphthyridine-2-carboxamide] were 1.04 µM and 6.2 nM.
Consider `C=CC(=O)N1CCN(c2cc(C(=O)N[C@H](C)CN(C)C)nc3c2CCN(c2c(Cl)c(C)cc4[nH]ncc24)C3)C[C@@H]1CC#N` [Compound 84, 4-((S)-4-acryloyl-3-(cyanomethyl)piperazin-1-yl)-7-(5-chloro-6-methyl-1H-indazol-4-yl)-N—((R)-1-(dimethylamino)propan-2-yl)-5,6,7,8-tetrahydro-1,7-naphthyridine-2-carboxamide], for which the IC50 in the assay with NCI-H358 cells (Homo sapiens, NCI-H358, 2 h) was 0.096 µM; in assay [1], 0.9 nM.
Consider `C=CC(=O)N1CCN(c2cc(C(=O)NC(C)CN3CCC(C)(O)C3)nc3c2CCN(c2cccc4cccc(C)c24)C3)C[C@@H]1CC#N` (single isomer, unassigned) [Compound 75, 4-((S)-4-acryloyl-3-(cyanomethyl)piperazin-1-yl)-N-((R or S)-1-((S or R)-3-hydroxy-3-methylpyrrolidin-1-yl)propan-2-yl)-7-(8-methylnaphthalen-1-yl)-5,6,7,8-tetrahydro-1,7-naphthyridine-2-carboxamide], for which the IC50 with NCI-H358 cells was 0.068 µM; in assay [1] it was 7.2 nM.
With `C=CC(=O)N1CCN(c2cc(C(=O)N[C@H](C)CN)nc3c2CCN(c2cccc4cccc(C)c24)C3)C[C@@H]1CC#N` [Compound 67, 4-((S)-4-acryloyl-3-(cyanomethyl)piperazin-1-yl)-N—((R)-1-aminopropan-2-yl)-7-(8-methylnaphthalen-1-yl)-5,6,7,8-tetrahydro-1,7-naphthyridine-2-carboxamide], the IC50 is 0.433 µM in the assay on NCI-H358 cells (Homo sapiens, NCI-H358, 2 h) and 5.9 nM in assay [1].
Take `C=CC(=O)N1CCN(c2cc(C(=O)N[C@H](C)CN)nc3c2CCN(c2cccc4ccccc24)C3)C[C@@H]1CC#N` [Compound 61, 4-((S)-4-acryloyl-3-(cyanomethyl)piperazin-1-yl)-N—((R)-1-aminopropan-2-yl)-7-(naphthalen-1-yl)-5,6,7,8-tetrahydro-1,7-naphthyridine-2-carboxamide]: the IC50 came to 1.24 µM in the assay with NCI-H358 cells (Homo sapiens, NCI-H358, 2 h) and 13 nM in assay [1].
Taken in the same sequence, the figures for `C=CC(=O)N1CCN(c2cc(C(=O)NC3(CN)CC3)nc3c2CCN(c2cccc4cccc(C)c24)C3)C[C@@H]1CC#N` [Compound 88, (S)-4-(4-acryloyl-3-(cyanomethyl)piperazin-1-yl)-N-(1-(aminomethyl)cyclopropyl)-7-(8-methylnaphthalen-1-yl)-5,6,7,8-tetrahydro-1,7-naphthyridine-2-carboxamide] were 1.01 µM and 4.3 nM.
The corresponding values for `C=CC(=O)N1CCN(c2cc(C(=O)N[C@H](C)CN3CC(C)(O)C3)nc3c2CCN(c2cccc4cccc(C)c24)C3)C[C@@H]1CC#N` [Compound 70, 4-((S)-4-acryloyl-3-(cyanomethyl)piperazin-1-yl)-N-((R)-1-(3-hydroxy-3-methylazetidin-1-yl)propan-2-yl)-7-(8-methylnaphthalen-1-yl)-5,6,7,8-tetrahydro-1,7-naphthyridine-2-carboxamide] are 0.057 µM and 2.2 nM.
Taken in the same sequence, the figures for `C=CC(=O)N1CCN(c2cc(C(=O)NCC3(N)CCOCC3)nc3c2CCN(c2cccc4cccc(C)c24)C3)C[C@@H]1CC#N` [Compound 90, (S)-4-(4-acryloyl-3-(cyanomethyl)piperazin-1-yl)-N-((4-aminotetrahydro-2H-pyran-4-yl)methyl)-7-(8-methylnaphthalen-1-yl)-5,6,7,8-tetrahydro-1,7-naphthyridine-2-carboxamide] were 2.34 µM and 21 nM.
As to `C=CC(=O)N1CCN(c2cc(C(=O)NC[C@@H]3CCCN3)nc3c2CCN(c2cccc4cccc(C)c24)C3)C[C@@H]1CC#N` [Compound 97, 4-((S)-4-acryloyl-3-(cyanomethyl)piperazin-1-yl)-7-(8-methylnaphthalen-1-yl)-N-(((S)-pyrrolidin-2-yl)methyl)-5,6,7,8-tetrahydro-1,7-naphthyridine-2-carboxamide], the IC50 with NCI-H358 cells (Homo sapiens, NCI-H358, 2 h) worked out at 2.48 µM; in assay [1] it was 15 nM.
Take `C=CC(=O)N1CCN(c2cc(C(=O)N[C@H](C)CN(C)C)nc3c2CCN(c2cccc4cccc(C)c24)C3)CC1` [Compound 12, (R)-4-(4-acryloylpiperazin-1-yl)-N-(1-(dimethylamino)propan-2-yl)-7-(8-methylnaphthalen-1-yl)-5,6,7,8-tetrahydro-1,7-naphthyridine-2-carboxamide]: the IC50 came out at 5.94 µM with NCI-H358 cells (Homo sapiens, NCI-H358, 2 h) and 66 nM in assay [1].
